Results on one molecule are retold here after patent publication US20140066394A1, “Substituted 6-(Benzylamino) Purine Riboside Derivatives, Use Thereof and Compositions Containing These Derivatives” (Biopatterns, S.R.O, priority 2009, published 2014).

The subject of assay [1] is human osteosarcoma HOS. Description: In vitro cytotoxicity, Calcein AM assay, HOS. The settings on record: Homo sapiens, 72 hours. In kind it is cell-based. From the text: Low cytotoxicity of the compounds is the major property determining the cosmetic use. One of the parameters used, as the basis for cytotoxicity assays, is the metabolic activity of viable cells. For example, a microtiter assay, which uses the Calcein AM, is now widely used to quantitate cell proliferation and cytotoxicity. For instance, this assay is used in drug screening programs and in chemosensitivity testing. Because only metabolically active cells cleave Calcein AM, these assays detect viable cells exclusively. The quantity of […] Calcein AM corresponds to the number of vital cells in the culture.
Human T-lymphoblastic leukemia cell line CEM; promyelocytic HL-60 and monocytic U937 leukemias; breast carcinoma cell lines MCF-7, BT549, MDA-MB-231; glioblastoma U87MG cells; cervical carcinoma cells HELA; sarcoma cells U2OS and Saos2; hepatocellular carcinoma HepG2; mouse fibroblasts NIH3T3; mouse immortalized bone marrow macrophages B2.4 and B10A.4; P388D1 and L1210 leukemia; B16 and B16F10 melanomas; human osteosarcoma HOS; human myeloid leukemia K-562; human skin melanoma G-361 were used for routine screening of compounds. The cells were maintained in Nunc/Corning 80 cm^2 plastic tissue culture flasks and cultured in cell culture medium (DMEM with 5 g/l glucose, 2 mM glutamine, 100 U/mL penicillin, 100 μg/mL streptomycin, 10% fetal calf serum and sodium bicarbonate).
The cell suspensions that were prepared and diluted according to the particular cell type and the expected target cell density (2.500-30.000 cells per well based on cell growth characteristics) were added by pipette ([…]) into 96/well microtiter plates. Inoculates were allowed a pre-incubation period of 24 hours at 37° C. and 5% CO2 for stabilisation. Four-fold dilutions of the intended test concentration were added at time zero in 20 μl aliquots to the microtiter plate wells. Usually, the compound tested was evaluated at six 4-fold dilutions. In routine testing, the highest well concentration was 100 μM, but it can be the matter of change dependent on the agent. All drug concentrations were examined in duplicates. Incubations of cells with the tested compounds lasted for 72 hours at 37° C., in 5% CO2 atmosphere and 100% humidity. At the end of the incubation period, the cells were assayed by using Calcein AM. Ten microliters of the stock solution were pipetted into each well and incubated for 1 hour. Fluorescence (FD) was measured with the Labsystem FIA Reader Fluoroscan Ascent (UK). The tumour cell survival (GI50) was calculated using the following equitation: TCS=(FDdrug exposed well/mean FDeontrol wells)×100%. The GI50 value, the drug concentration lethal to 50% of the tumour cells, was calculated from the obtained dose response curves.
Zero cytotoxicity of the novel compounds is the basic prerequisite for agricultural and tumor-unrelated applications. The cytoxicity of the novel compounds was tested on a panel of cell lines of different histogenetic and species origin (Table 9). We show herein that equal activities were found in all tumour cell lines tested, however, the non-malignant cells, e.g. NIH3T3 fibroblasts and normal human lymphocytes, were resistant to 2,6-disubstituted purine ribosides induced cytotoxicity. The compounds listed in Tab. 9 can be divided into 2 groups. The first group contains “classical cytokinins” represented by 6-substituted purine ribosides (which are known in the prior art). The second group contains the novel 2,6-disubstituted derivatives of these compounds. […] GI50 for NIH3T3 fibroblasts and normal human lymphocytes was always higher than 100 μM. The novel derivatives show no toxicity to normal and tumour cells in concentrations about 100 μM and thus are more suitable for agricultural applications than “classical cytokinins” (6-substituted purine riboside derivatives).

Assay [2] concerns neutrophils. Description: Neutrophil adhesion, rolling and migration under flow over TNF primed HUVEC. The format is cell-based, human. As for the experimental part: Neutrophils were introduced into a flow based cell adhesion instrument at 5×10^6 cells/ml in medium containing 50 or 100 μM of compound 10. The capillary system is lined with TNF-primed HUVEC and cell adhesion, rolling and transmigration is monitored by time-lapse video microscopy. Data are expressed as cells adhered to HUVEC per mm^2, per 10^6 cells (left panel) or % of cells rolling or migrated (right panel). LGR 1406 (N-5-(2-aminocyclohexyl)-N-7-benzyl-3-isopropyl-1(2)H-pyrazolo[4,3-d]pyrimidine-5,7-diamine, Sroka et al. Mol Pharmacol. 2010; 77(2):255-61) was used as a negative control. Data are mean±SD of 3 separate experiments.
LGR 1406 as a negative control.
The ability of neutrophils to adhere to vascular endothelium and migrate from the blood into tissue, is the first step in the inflammatory process. Interference with this process would also result in suppression of inflammation. Neutrophils were flowed over TNF primed endothelial cells (HUVEC) lining a capillary based migration system, at flows rates and pressures mimicking the in vivo vasculature (see for detailed description of apparatus). Cells were recorded using time-lapse video microscopy and the numbers of rolling, adhered and transmigrated cells were enumerated over a 20 minute period. In test incubations the neutrophils and HUVEC were pre-treated with compound 10 at 50 and 100 μM and the compound was also present in the medium in which neutrophils were suspended.

The mark [3] stands for this setting: compound at 50 and 100 μM, 20 minute period.

As a reminder, the GI50 is the concentration that inhibits growth by half. Take `COc1cccc(CNc2nc(Cl)nc3c2ncn3C2OC(CO)C(O)C2O)c1O` (stereo not shown) [Compound 10, 2-Chloro-6-(2-hydroxy-3-methoxybenzylamino)purine riboside]: the GI50 in assay [1] was greater than 100 µM. The neutrophil rolling velocity entry in assay [2] (FIG. 7, LGR 1406 as negative control) was “positive effects”. Also, in assay [2] (setting [3]), the “number of cells that adhered and transmigrated through the endothelial layer” value was “reduced the number of cells that adhered and transmigrated”; the “number of cells that rolled over the endothelium” value is “increased the ones that rolled over the endothelium”.
